What follows are compounds tested on rat hepatocytes (assay: Hepatocyte assay for determination of metabolic stability). Details: after incubation with rat hepatocytes.
Type: in vitro ADME
Description: The metabolic stability of test compounds towards hepatocytes is determined by incubating the compounds at low concentrations (preferably below or around 1 μM) and at low cell counts (preferably at 1*10^6 cells/ml) in order to ensure maximum linearity of kinetic conditions in the experiment. Seven samples from the incubation solution are taken for the LC-MS analysis within a fixed time pattern, in order to determine the half-life (i.e. the degradation) of the particular compound. This half life is used to calculate various “Clearance” parameters (CL) and “Fmax” values (see below).
The CL and Fmax values are a measure of the phase 1 and phase 2 metabolism of the compounds in the hepatocytes. In order to minimize the influence of the organic solvent on the enzymes in the incubation batches, the concentration thereof is generally limited to 1% (acetonitrile) or 0.1% (DMSO).
For all species and breeds, a hepatocyte cell count in the liver of 1.1*10^8 cells/g of liver is expected.
The parameters calculated and the meanings thereof are: • Fmax well-stirred [%] maximum possible bioavailability after oral administration • Calculation: (1−CLblood well-stirred/QH)*100 • CLblood well-stirred [L/(h*kg)] calculated blood clearance (well-stirred model) • Calculation: (QH*CL′intrinsic)/(QH+CL′intrinsic) • CL′intrinsic[ml/(min*kg)] maximum ability of the liver (of the hepatocytes) to metabolize a compound (assuming that the liver blood flow is not rate-limiting) • Calculation: CL′intrinsic, apparent*species-specific hepatocyte count [1.1*10^8/g liver]*species-specific liver weight [g/kg] • CL′intrinsic, apparent[ml/(min*mg)] normalizes the elimination constant by dividing it by the hepatocyte cell count x used (x*10^6/ml) • Calculation: ke1[1/min]/(cell count [x*10^6]/incubation volume [ml]) • (QH=species-specific liver blood flow).

Row | CLblood (calculated blood clearance, well-stirred) [mL/min/kg] | Fmax (maximum possible bioavailability after oral administration, well-stirred) [%] | SMILES
1 | 16.8 | 76.1 | Cc1ccc2nnn(C[C@H]3CC[C@@H](C(=O)c4ccc(OCc5ccccc5)cc4)[C@@H]3C(=O)O)c(=O)c2c1 (racemic) [Example 92, (+)-(1RS,2RS,5SR)-2-[4-(Benzyloxy)benzoyl]-5-[(6-methyl-4-oxo-1,2,3-benzotriazin-3(4H)-yl)methyl]cyclopentanecarboxylic acid]
2 | 1.5 | 97.8 | Cc1ccc2nnn(C[C@H]3CC[C@@H](C(=O)c4ccc(OCc5cccc(C(F)(F)F)c5)cc4)[C@@H]3C(=O)O)c(=O)c2c1 (racemic) [Example 101, (+)-(1RS,2SR,5RS)-2-[(6-Methyl-4-oxo-1,2,3-benzotriazin-3(4H)-yl)methyl]-5-(4-{[3-(trifluoromethyl)benzyl]oxy}benzoyl)cyclopentanecarboxylic acid]
3 | 16.5 | 76.3 | Cc1ccc2nnn(C[C@H]3CC[C@@H](C(=O)c4ccc(OCc5cccc(Cl)c5)cc4)[C@@H]3C(=O)O)c(=O)c2c1 (racemic) [Example 104, (+)-(1RS,2RS,5SR)-2-{4-[(3-Chlorobenzyl)oxy]benzoyl}-5-[(6-methyl-4-oxo-1,2,3-benzotriazin-3(4H)-yl)methyl]cyclopentanecarboxylic acid]
4 | 8.33 | 88.2 | Cc1ccc2nnn(C[C@H]3CC[C@@H](C(=O)c4ccc(OCc5ccc(F)cc5)cc4)[C@@H]3C(=O)O)c(=O)c2c1 (racemic) [Example 95, (+)-(1RS,2RS,5SR)-2-{4-[(4-Fluorobenzyl)oxy]benzoyl}-5-[(6-methyl-4-oxo-1,2,3-benzotriazin-3(4H)-yl)methyl]cyclopentanecarboxylic acid]
